# Experimental data taken from article PMC11191095, “QSAR Reveals Decreased Lipophilicity of Polar Residues Determines the Selectivity of Antimicrobial Peptide Activity” (ACS Omega, 2024).
# Where a SMILES comes first, the peptide text is derived from it.
# How the values were obtained:
# Experiment in all cases: microbe, parasite or virus in culture
# [1] = tested on: E. coli LEC001; type: cell-based, Escherichia coli; conditions: E. coli LEC001 (R)
# Procedure, shortened: (§1)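 Peptides 128→2 μg/mL, 2-fold series; inoculum ~5 × 10^5 CFU/mL from overnight culture (OD600 0.01, mixed 1:1). MHB non-cation-adjusted for bacteria, RPMI 1640 + 2% glucose for fungi. 37 °C, 20 h, OD600. MIC50/MIC90 at 50%/90% inhibition; n ≥ 3.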
# [2] = tested on: E. coli NCTC 12923; type: cell-based, Escherichia coli; conditions: E. coli NCTC 12923 (S)
# Procedure, shortened: as §1
# [3] = tested on: P. aeruginosa NCTC 13437; type: cell-based, Pseudomonas aeruginosa; conditions: P. aeruginosa NCTC 13437 (R)
# Procedure, shortened: as §1
# [4] = tested on: A. baumannii ATCC 17978; type: cell-based, Acinetobacter baumannii; conditions: A. baumannii ATCC 17978 (S)
# Procedure, shortened: as §1
# [5] = tested on: A. baumannii AYE; type: cell-based, Acinetobacter baumannii; conditions: A. baumannii AYE (R)
# Procedure, shortened: as §1
# [6] = tested on: K. pneumoniae M6; type: cell-based, Klebsiella pneumoniae; conditions: K. pneumoniae M6 (S)
# Procedure, shortened: as §1
# [7] = tested on: K. pneumoniae NCTC 13368; type: cell-based, Klebsiella pneumoniae; conditions: K. pneumoniae NCTC 13368 (R)
# Procedure, shortened: as §1
# [8] = tested on: S. aureus (MRSA) 1199B; type: cell-based, Staphylococcus aureus; conditions: S. aureus (MRSA) 1199B (R)
# Procedure, shortened: as §1
# [9] = tested on: S. aureus (MRSA) NCTC 13616; type: cell-based, Staphylococcus aureus; conditions: S. aureus (MRSA) NCTC 13616 (R)
# Procedure, shortened: as §1
# [10] = tested on: S. aureus (MRSA) USA300; type: cell-based, Staphylococcus aureus; conditions: S. aureus (MRSA) USA300 (R)
# Procedure, shortened: as §1
# [11] = tested on: S. aureus (MSSA) ATCC 9144; type: cell-based, Staphylococcus aureus; conditions: S. aureus (MSSA) ATCC 9144 (S)
# Procedure, shortened: as §1
# [12] = tested on: C. albicans NCPF 3281; type: cell-based; conditions: C. albicans NCPF 3281
# Procedure, shortened: as §1
# [13] = tested on: C. glabrata NCPF 8018; type: cell-based; conditions: C. glabrata NCPF 8018
# Procedure, shortened: as §1
# [14] = tested on: C. krusei NCPF 3876; type: cell-based; conditions: C. krusei NCPF 3876
# Procedure, shortened: as §1
# [15] = tested on: C. parapsilosis NCPF 3209; type: cell-based; conditions: C. parapsilosis NCPF 3209
# Procedure, shortened: as §1
# [16] = tested on: C. tropicalis NCPF 8760; type: cell-based; conditions: C. tropicalis NCPF 8760
# Procedure, shortened: as §1
# [17] = MHB, 37 °C, 20 h, OD600, min. three biological repeats
# [18] = 50% growth inhibition, RPMI 1640 + 2% glucose, 37 °C, 20 h
# [19] = 90% growth inhibition, RPMI 1640 + 2% glucose, 37 °C, 20 h
smiles,measurement,setting,value
CC[C@H](C)[C@H](N)C(=O)N[C@@H](CCCNC(=N)N)C(=O)NCC(=O)N[C@@H](Cc1ccc(O)cc1)C(=O)N[C@@H](CCCCN)C(=O)NCC(=O)NCC(=O)N[C@@H](Cc1ccc(O)cc1)C(=O)N[C@@H](CS)C(=O)N[C@@H](CCCCN)C(N)=O [Os(3-12)a] (H-IRGYKGGYCK-NH2),Modal MIC,[1]; [17],> 128 µg/mL
same,Modal MIC,[1]; shown in µM,> 112 µM
same,Modal MIC,"[2]; MHB, ~5×10^5 CFU/mL, 37 °C, 20 h, OD600, min. three biological repeats",> 128 µg/mL
same,Modal MIC,[2]; shown in µM,> 112 µM
same,Modal MIC,[3]; [17],> 128 µg/mL
same,Modal MIC,[3]; shown in µM,> 112 µM
same,Modal MIC,[4]; [17],> 128 µg/mL
same,Modal MIC,[4]; shown in µM,> 112 µM
same,Modal MIC,[5]; [17],> 128 µg/mL
same,Modal MIC,[5]; shown in µM,> 112 µM
same,Modal MIC,[6]; [17],> 128 µg/mL
same,Modal MIC,[6]; shown in µM,> 112 µM
same,Modal MIC,[7]; [17],> 128 µg/mL
same,Modal MIC,[7]; shown in µM,> 112 µM
same,Modal MIC,[8]; [17],> 128 µg/mL
same,Modal MIC,[8]; shown in µM,> 112 µM
same,Modal MIC,[9]; [17],> 128 µg/mL
same,Modal MIC,[9]; shown in µM,> 112 µM
same,Modal MIC,[10]; [17],> 128 µg/mL
same,Modal MIC,[10]; shown in µM,> 112 µM
same,Modal MIC,[11]; [17],> 128 µg/mL
same,Modal MIC,[11]; shown in µM,> 112 µM
same,Modal MIC50,[12]; [18],> 128 µg/mL
same,Modal MIC90,[12]; [19],> 128 µg/mL
same,Modal MIC50,[12]; shown in µM,> 112 µM
same,Modal MIC90,[12]; shown in µM,> 112 µM
same,Modal MIC50,[13]; [18],> 128 µg/mL
same,Modal MIC90,[13]; [19],> 128 µg/mL
same,Modal MIC50,[13]; shown in µM,> 112 µM
same,Modal MIC90,[13]; shown in µM,> 112 µM
same,Modal MIC50,[14]; [18],> 128 µg/mL
same,Modal MIC90,[14]; [19],> 128 µg/mL
same,Modal MIC50,[14]; shown in µM,> 112 µM
same,Modal MIC90,[14]; shown in µM,> 112 µM
same,Modal MIC50,[15]; [18],> 128 µg/mL
same,Modal MIC90,[15]; [19],> 128 µg/mL
same,Modal MIC50,[15]; shown in µM,> 112 µM
same,Modal MIC90,[15]; shown in µM,> 112 µM
same,Modal MIC50,[16]; [18],> 128 µg/mL
same,Modal MIC90,[16]; [19],> 128 µg/mL
same,Modal MIC50,[16]; shown in µM,> 112 µM
same,Modal MIC90,[16]; shown in µM,> 112 µM
